Experiment [1] deals with Venturia inaequalis Strain EUB04. Kind of experiment: In planta test on apple plantlets against apple scab. It counts as in vivo. Particulars: reference fungicide mode, D9 to D21. The method, then: The in planta tests on apple plantlets were carried out according to the following protocol:
2 modes tested: spraying of extract D at 5 g/L 2 hours before inoculation (ExtractBefore) and spraying of extract D at 5 g/L 3 hours after inoculation (ExtractAfter)
3 control modes: • 2 untreated control modes (spraying of water on the same dates as the product) (WaterBefore and WaterAfter) • 1 mode with a reference fungicide (captan)
Artificial inoculation of plants with a Venturia inaequalis strain at 100 000 spores/ml.
Scab symptoms noted at 4 dates post-inoculation (visual estimate of % scab area)
Biological material: • Plantlets derived from roughly 3-week-old apple seedlings in soil balls—from pips taken from the Gala variety (apples harvested in an orchard planted with Gala and Elstar) • Venturia inaequalis spores on cellophane—Strain EUB04
3 boxes of 12 plantlets for each mode
D+9, D+14, D+17, D+21: Notation of percentage of leaf area affected (from 0 to 100% in 10% increments)
Since the normality and homogeneity conditions of the variances of the residues were not met, a non-parametric Kruskal-Wallis test was performed. This test being significant, the medians of the different modes were compared pairwise using the Nemenyi test based on Tukey's distance. These analyses were carried out with the R software (version 3.1.2).

Experiment [2] deals with F. graminearum. It counts as cell-based, Fusarium graminearum.

SMILES strings stand for the structures.

In the case of `O=C1C2CC=CCC2C(=O)N1SC(Cl)(Cl)Cl` (centres unmarked) [captan], the scab development result in experiment [1] is “no scab development was observed”.

Take `C=C/C=C/CC/C=C/C=C/C=C/CC/C=C/[C@H](O)[C@H](O)[C@@H]1O[C@@H]([C@H](O)[C@H](O)C(=C)CC[C@@H](O)[C@H]2C[C@@H](O)[C@@H](O)[C@H]([C@@H](O)[C@H](O)/C=C(\C)CCC(O)CC(O)C(O)C(C)CC(O)C(O)CC(C)CCC(O)CC(=O)CC(O)CCCC(O)CCCCC(O)CO)O2)C[C@@H](O)[C@H]1O` (some centres unmarked) [amphidinol 18]: in experiment [2], the “antifungal activity against F. graminearum” value is reported as “has antifungal activity against F. graminearum”.

Values taken from patent US20190174768A1 (priority 2016, published 2019).
